Patent publication US10092002B2, “Herbicidal composition comprising nicosulfuron or its salt and S -metolachlor or its salt” (ISHIHARA SANGYO KAISHA, LTD., priority 2011, dated 2018)

Legend:
Type in all cases: in vivo
[1] = system: wild oat (Avena fatua L.); experiment: Test Example 3: soil treatment, wild oat, visual growth inhibition rate; details: Avena fatua, soil treatment the day after sowing, 14th day after treatment, read-out: Growth inhibition rate (%) of wild oat, Measured value
Source text: When the herbicidal activity in a case where two active ingredients are combined, is larger than the simple sum of the respective herbicidal activities of the two active ingredients (the expected activity), it is called a synergistic effect. The activity expected by the combination of two active ingredients can be calculated as follows (Colby S. R., “Weed”, vol. 15, p. 20-22, 1967). […] In a case where three active ingredients are combined, the activity can be similarly calculated as follows. […] On the 22nd day after treatment, the state of growth of the common cocklebur was visually observed to determine the growth inhibition rate in accordance with the following evaluation standard. The growth inhibition rate (%) (measured value) and the growth inhibition rate (%) (calculated value) calculated by the Colby's formula are shown in Table 1. […] On the 14th day after treatment, the state of growth of the wild oat was visually observed to determine the growth inhibition rate.

[2] = system: common cocklebur (Xanthium strumarium L.); experiment: Test Example 1: foliar treatment of common cocklebur in pots, visual growth inhibition rate; details: Xanthium strumarium, foliar treatment at 4.3 to 4.8-leaf stage, 22nd day after treatment, read-out: Growth inhibition rate (%) of common cocklebur, Measured value
Source text: When the herbicidal activity in a case where two active ingredients are combined, is larger than the simple sum of the respective herbicidal activities of the two active ingredients (the expected activity), it is called a synergistic effect. The activity expected by the combination of two active ingredients can be calculated as follows (Colby S. R., “Weed”, vol. 15, p. 20-22, 1967). E1=α+β-(α×β÷100) In a case where three active ingredients are combined, the activity can be similarly calculated as follows. […] Upland field soil was put into a 1/1,000,000 ha pot, and seeds of common cocklebur (Xanthium strumarium L.) were sown. […] Dual Gold, manufactured by Syngenta Crop Protection AG), SC agent containing terbuthylazine as an active ingredient (tradename: Click, manufactured by BASF), SC agent containing mesotrione as an active ingredient (tradename: Callisto, manufactured by Syngenta Crop Protection AG) and WG agent containing prosulfuron as an active ingredient (tradename: Peak, manufactured by Syngenta Crop Protection AG) were diluted with water in an amount corresponding to 1,000 Uha, and applied for foliar treatment by a small sprayer. On the 22nd day after treatment, the state of growth of the common cocklebur was visually observed to determine the growth inhibition rate in accordance with the following evaluation standard. The growth inhibition rate (%) (measured value) and the growth inhibition rate (%) (calculated value) calculated by the Colby's formula are shown in Table 1.

[3] = system: sunn-hemp (Crotalaria juncea L.); experiment: Test Example 4: soil treatment, sunn-hemp, visual growth inhibition rate; details: Crotalaria juncea, soil, read-out: Growth inhibition rate (%) of sunn-hemp, Measured value
Source text: In a case where three active ingredients are combined, the activity can be similarly calculated as follows. E2=(α+β+γ)−(αβ+αγ+βγ)/100+(αβγ)/10000 where α: growth inhibition rate when treated with x (g/ha) of herbicide X,
Growth inhibition rate (%)=0 (equivalent to the non-treated area) to 100 (complete kill)
Upland field soil was put into a 1/300,000 ha pot, and seeds of sunn-hemp (Crotalaria juncea L.) were sown.

COc1nc(C)nc(NC(=O)NS(=O)(=O)c2ccccc2CCC(F)(F)F)n1 [Prosulfuron, 1-(4-methoxy-6-methyl-1,3,5-triazin-2-yl)-3-[2-(3,3,3-trifluoropropyl)phenylsulfonyl]urea]
inhibition at 2.5 g/ha ([1]; dose 2.5 g/ha): 25%
inhibition at 50 g/ha ([1]; dose 50 g/ha): 0%
inhibition at 15 g/ha ([2]; dose 15 g/ha): 88%

CCNc1nc(Cl)nc(NC(C)(C)C)n1 [Terbuthylazine, N^2-tert-butyl-6-chloro-N^4-ethyl-1,3,5-triazine-2,4-diamine]
inhibition at 250 g/ha ([1]; dose 250 g/ha): 25%
inhibition at 1500 g/ha ([1]; dose 1500 g/ha): 5%
inhibition at 500 g/ha ([2]; dose 500 g/ha): 10%

COCCOCc1nc(C(F)(F)F)ccc1C(=O)C1=C(O)C2CCC(C2)C1=O (centres unmarked) [Bicyclopyrone, 4-hydroxy-3-{2-[(2-methoxyethoxy)methyl]-6-(trifluoromethyl)-3-pyridylcarbonyl}bicyclo[3.2.1]oct-3-en-2-one]
inhibition at 25 g/ha [3]: 0%
inhibition at 150 g/ha [3]: 20%

CS(=O)(=O)c1ccc(C(=O)C2C(=O)CCCC2=O)c([N+](=O)[O-])c1 [Mesotrione, 2-(4-mesyl-2-nitrobenzoyl)cyclohexane-1,3-dione]
inhibition at 25 g/ha ([1]; dose 25 g/ha): 0%
inhibition at 150 g/ha ([1]; dose 150 g/ha): 5%
inhibition at 50 g/ha ([2]; dose 50 g/ha): 0%
